# ChEMBL document CHEMBL1201862, “PubChem BioAssay data set” (2004)
#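 Cells were grown in 96-well plates and exposed to each compound for 48 hours at five concentrations; endpoints were interpolated linearly between bracketing concentrations, or set to the highest concentration if not reached. Here, GI50 denotes the concentration required for 50% inhibition of growth.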 The source made the active and inactive calls. No stated cut-off is given here; in the data, active = GI50 up to about 1.1 µM and inactive = higher.
# Key:
# Test in all cases: inhibition of tumour cell growth, NCI panel, 48 h
# [1] = system: ACHN
# [2] = system: CAKI-1
# [3] = system: CCRF-CEM
# [4] = system: HOP-92
# [5] = system: HT-29
# [6] = system: KM12
# [7] = system: LOX IMVI
# [8] = system: M14
# [9] = system: NCI-H460
# [10] = system: OVCAR-8
# [11] = system: SF-268
# [12] = system: SK-OV-3
# [13] = system: SN12C
# [14] = system: SNB-19
# [15] = system: SNB-75
# [16] = system: SR
# [17] = system: TK-10
# [18] = system: UACC-62
# [19] = system: HCT-15
Compound,GI50 [1],GI50 [2],GI50 [3],GI50 [4],GI50 [5],GI50 [6],GI50 [7],GI50 [8],GI50 [9],GI50 [10],GI50 [11],GI50 [12],GI50 [13],GI50 [14],GI50 [15],GI50 [16],GI50 [17],GI50 [18],GI50 [19] [µM]
Cc1cn(C2C=CC(=O)C(C)O2)c(=O)[nH]c1=O (centres undefined),17.5 µM (inactive),16.7 µM (inactive),6.07 µM (inactive),15.9 µM (inactive),17.1 µM (inactive),16.1 µM (inactive),13.2 µM (inactive),15.3 µM (inactive),17.9 µM (inactive),18.6 µM (inactive),18.2 µM (inactive),33.8 µM (inactive),15.9 µM (inactive),21 µM (inactive),15.5 µM (inactive),18.3 µM (inactive),15.1 µM (inactive),15.7 µM (inactive),
CCOC(=O)C1=C(C)N2CCOC2(C)C(C(=O)OC)C1c1cccc(Cl)c1 (centres undefined),> 100 µM (inactive),> 100 µM (inactive),> 100 µM (inactive),31.6 µM (inactive),> 100 µM (inactive),> 100 µM (inactive),> 100 µM (inactive),> 100 µM (inactive),> 100 µM (inactive),> 100 µM (inactive),> 100 µM (inactive),> 100 µM (inactive),> 100 µM (inactive),> 100 µM (inactive),> 100 µM (inactive),> 100 µM (inactive),> 100 µM (inactive),88.7 µM (inactive),> 100
CN(C)CCC(=O)c1ccccc1,> 57.5 µM (inactive),18.9 µM (inactive),23.4 µM (inactive),24.5 µM (inactive),> 47.8 µM (inactive),32.5 µM (inactive),36.4 µM (inactive),32.4 µM (inactive),> 58.5 µM (inactive),36.6 µM (inactive),> 58.5 µM (inactive),> 57.1 µM (inactive),> 58.6 µM (inactive),> 100 µM (inactive),> 59.4 µM (inactive),35.1 µM (inactive),> 56.5 µM (inactive),> 56.2 µM (inactive),24.1
Cc1cc(Br)ccc1/N=N/c1c(C)nn(-c2ccccc2)c1-c1ccccc1,54.7 µM (inactive),71.3 µM (inactive),21.2 µM (inactive),98.6 µM (inactive),44.5 µM (inactive),57 µM (inactive),16.6 µM (inactive),> 100 µM (inactive),45.8 µM (inactive),> 100 µM (inactive),> 100 µM (inactive),> 100 µM (inactive),97.5 µM (inactive),> 100 µM (inactive),> 100 µM (inactive),> 100 µM (inactive),> 100 µM (inactive),27 µM (inactive),9.82
COC1C=CC(C(=O)[N+]2=Cc3[nH]c4ccccc4c3CC2)O1 (centres undefined),97.9 µM (inactive),> 100 µM (inactive),27.6 µM (inactive),> 100 µM (inactive),> 100 µM (inactive),> 100 µM (inactive),> 100 µM (inactive),> 100 µM (inactive),69.3 µM (inactive),> 100 µM (inactive),> 100 µM (inactive),52.5 µM (inactive),> 100 µM (inactive),> 100 µM (inactive),75.3 µM (inactive),30.5 µM (inactive),> 100 µM (inactive),> 100 µM (inactive),78.5
